Experimental data reported in ChEMBL document CHEMBL3804755, “Discovery of new [1,4]dioxino[2,3-f]quinazoline-based inhibitors of EGFR including the T790M/L858R mutant” (Bioorg Med Chem, 2016).

Tests used:
NCI-H358 = test: Antiproliferative activity against human NCI-H358 cells assessed as reduction in cell viability after 48 hrs by cck8 assay; format: functional, cell-based; conditions: NCI-H358, 48 h
[1] = target: Epidermal growth factor receptor (Homo sapiens, UniProt P00533, L858R/T790M); format: protein assay
Chain of Epidermal growth factor receptor (Homo sapiens, UniProt P00533, L858R/T790M) (P00533 25-1210 T790M/L858R limits assumed): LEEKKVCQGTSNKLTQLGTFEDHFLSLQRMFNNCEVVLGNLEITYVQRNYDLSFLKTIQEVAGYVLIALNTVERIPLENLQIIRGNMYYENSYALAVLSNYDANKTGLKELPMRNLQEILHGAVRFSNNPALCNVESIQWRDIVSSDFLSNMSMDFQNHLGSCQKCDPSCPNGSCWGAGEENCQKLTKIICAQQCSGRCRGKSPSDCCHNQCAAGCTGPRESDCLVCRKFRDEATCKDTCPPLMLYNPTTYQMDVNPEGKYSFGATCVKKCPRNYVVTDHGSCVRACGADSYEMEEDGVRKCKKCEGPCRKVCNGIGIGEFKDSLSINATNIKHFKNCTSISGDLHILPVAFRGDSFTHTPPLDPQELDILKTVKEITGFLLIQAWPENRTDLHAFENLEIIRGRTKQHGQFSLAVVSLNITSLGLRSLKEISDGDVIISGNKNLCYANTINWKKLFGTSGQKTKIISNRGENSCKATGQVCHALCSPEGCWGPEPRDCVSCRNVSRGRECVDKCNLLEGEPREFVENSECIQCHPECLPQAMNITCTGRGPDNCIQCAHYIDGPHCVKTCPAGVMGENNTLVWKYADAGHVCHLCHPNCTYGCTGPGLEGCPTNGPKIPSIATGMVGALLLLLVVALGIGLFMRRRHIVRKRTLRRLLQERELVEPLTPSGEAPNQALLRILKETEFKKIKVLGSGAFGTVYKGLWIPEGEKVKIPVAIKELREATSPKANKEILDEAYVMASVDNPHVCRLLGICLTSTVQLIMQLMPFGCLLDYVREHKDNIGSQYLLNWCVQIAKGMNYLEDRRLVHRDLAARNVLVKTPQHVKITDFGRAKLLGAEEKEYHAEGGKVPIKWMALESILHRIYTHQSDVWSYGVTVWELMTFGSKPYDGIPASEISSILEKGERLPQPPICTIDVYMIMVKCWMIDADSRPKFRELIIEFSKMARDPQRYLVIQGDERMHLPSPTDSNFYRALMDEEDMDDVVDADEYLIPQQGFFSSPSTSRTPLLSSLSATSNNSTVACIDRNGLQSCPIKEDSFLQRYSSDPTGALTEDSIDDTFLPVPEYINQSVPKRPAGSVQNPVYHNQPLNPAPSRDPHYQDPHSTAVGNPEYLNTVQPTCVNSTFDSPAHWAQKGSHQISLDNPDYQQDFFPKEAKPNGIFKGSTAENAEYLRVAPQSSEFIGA

[2] = target: Epidermal growth factor receptor (Homo sapiens, UniProt P00533); test: Inhibition of wild type EGFR (unknown origin) autophosphorylation preincubated for 30 mins followed by ATP addition measured after 1 hr by kinase-glo luminescence assay
Chain of Epidermal growth factor receptor (Homo sapiens, UniProt P00533) (P00533 whole entry): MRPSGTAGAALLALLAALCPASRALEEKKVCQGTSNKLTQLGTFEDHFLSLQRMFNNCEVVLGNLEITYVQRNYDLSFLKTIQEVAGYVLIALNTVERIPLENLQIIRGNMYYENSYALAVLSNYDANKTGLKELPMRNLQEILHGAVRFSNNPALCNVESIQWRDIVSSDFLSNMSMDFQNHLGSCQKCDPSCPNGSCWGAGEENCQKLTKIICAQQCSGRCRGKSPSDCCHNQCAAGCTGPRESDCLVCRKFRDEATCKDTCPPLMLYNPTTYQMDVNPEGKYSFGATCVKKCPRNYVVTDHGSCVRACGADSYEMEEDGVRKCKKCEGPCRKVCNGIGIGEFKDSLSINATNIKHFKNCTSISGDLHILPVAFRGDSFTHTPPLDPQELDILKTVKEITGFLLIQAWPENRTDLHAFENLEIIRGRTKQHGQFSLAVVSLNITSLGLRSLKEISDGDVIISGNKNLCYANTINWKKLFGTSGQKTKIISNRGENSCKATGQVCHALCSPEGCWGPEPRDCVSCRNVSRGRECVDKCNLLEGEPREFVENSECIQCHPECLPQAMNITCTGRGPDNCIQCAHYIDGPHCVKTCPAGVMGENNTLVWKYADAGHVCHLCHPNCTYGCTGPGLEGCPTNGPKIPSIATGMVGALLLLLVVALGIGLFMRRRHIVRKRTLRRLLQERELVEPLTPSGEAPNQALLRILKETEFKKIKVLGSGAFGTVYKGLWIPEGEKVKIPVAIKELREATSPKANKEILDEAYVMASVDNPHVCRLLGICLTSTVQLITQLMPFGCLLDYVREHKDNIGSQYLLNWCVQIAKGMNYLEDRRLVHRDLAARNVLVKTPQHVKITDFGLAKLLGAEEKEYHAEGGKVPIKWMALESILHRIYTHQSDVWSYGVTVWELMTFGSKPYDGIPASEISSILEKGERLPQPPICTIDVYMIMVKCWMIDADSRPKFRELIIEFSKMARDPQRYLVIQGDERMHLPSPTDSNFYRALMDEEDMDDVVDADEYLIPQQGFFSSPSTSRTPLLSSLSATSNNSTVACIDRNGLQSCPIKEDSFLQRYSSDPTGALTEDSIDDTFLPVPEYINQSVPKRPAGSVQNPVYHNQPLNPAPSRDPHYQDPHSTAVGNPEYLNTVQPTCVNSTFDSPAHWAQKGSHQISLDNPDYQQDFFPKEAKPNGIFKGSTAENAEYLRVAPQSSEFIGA

A549 = test: Antiproliferative activity against human A549 cells assessed as reduction in cell viability after 48 hrs by cck8 assay; format: functional, cell-based; conditions: A549, 48 h
[3] = Cytotoxicity against HEK293T assessed as reduction in cell viability by MTT assay; format: cell-based, HEK-293T; conditions: human, HEK293T cells

CCOc1cc2ncnc(Nc3ccc(C)c(Cl)c3)c2c2c1OCCO2
IC50 (NCI-H358): 17300 nM | IC50 [1]: 33.8 nM | IC50 [2]: 6.7 nM | IC50 (A549): 11800 nM

Fc1cccc(Nc2ncnc3cc(OCCCN4CCOCC4)c4c(c23)OCCO4)c1
IC50 [2]: 83.9 nM

C#Cc1cccc(Nc2ncnc3cc(OCC)c4c(c23)OCCO4)c1
IC50 (NCI-H358): 8890 nM | CC50 [3]: 28200 nM | IC50 [1]: 21.5 nM | IC50 [2]: 9.2 nM | IC50 (A549): 10500 nM

Cc1ccc(Nc2ncnc3cc(OC(C)C)c4c(c23)OCCO4)cc1[N+](=O)[O-]
IC50 [1]: > 1000 nM | IC50 [2]: 184 nM

CC(C)Oc1cc2ncnc(Nc3ccc(Cl)c([N+](=O)[O-])c3)c2c2c1OCCO2
IC50 [1]: 1300 nM | IC50 [2]: 103 nM

Fc1ccc(Nc2ncnc3cc(OCCCN4CCOCC4)c4c(c23)OCCO4)cc1Cl
IC50 [2]: 25.9 nM

C#Cc1cccc(Nc2ncnc3cc(OC)c4c(c23)OCCO4)c1
CC50 [3]: 11700 nM | IC50 [1]: > 1000 nM | IC50 [2]: 10.9 nM

CCOc1cc2ncnc(Nc3cccc([N+](=O)[O-])c3)c2c2c1OCCO2
CC50 [3]: 42000 nM | IC50 [1]: 71 nM | IC50 [2]: 9.7 nM

CCOC(C)Oc1cc2ncnc(Nc3ccc(C)c([N+](=O)[O-])c3)c2c2c1OCCO2 (stereo not given)
IC50 [1]: > 1000 nM | IC50 [2]: 363 nM

COCCOc1cc2ncnc(Nc3ccc(F)c(C#N)c3)c2c2c1OCCO2
IC50 [1]: > 1000 nM | IC50 [2]: 388 nM

CC(C)Oc1cc2ncnc(Nc3ccc(F)c(Cl)c3)c2c2c1OCCO2
IC50 (NCI-H358): 6920 nM | IC50 [1]: 46.3 nM | IC50 [2]: 29.1 nM | IC50 (A549): 11600 nM

COCCOc1cc2ncnc(Nc3ccc(C)c([N+](=O)[O-])c3)c2c2c1OCCO2
IC50 [1]: > 1000 nM | IC50 [2]: 74.6 nM

C#Cc1cccc(Nc2ncnc3cc(OCC4CCCO4)c4c(c23)OCCO4)c1 (stereo not given)
CC50 [3]: 40200 nM | IC50 [1]: 121 nM | IC50 [2]: 27.3 nM

CC(C)Oc1cc2ncnc(Nc3ccc(F)c([N+](=O)[O-])c3)c2c2c1OCCO2
IC50 [1]: > 1000 nM | IC50 [2]: 82.5 nM

CCOC(C)Oc1cc2ncnc(Nc3ccc(OC)c([N+](=O)[O-])c3)c2c2c1OCCO2 (stereo not given)
IC50 [1]: > 1000 nM | IC50 [2]: > 1000 nM

C#Cc1cccc(Nc2ncnc3cc(OCCOC)c4c(c23)OCCO4)c1
IC50 (NCI-H358): 7350 nM | CC50 [3]: 22100 nM | IC50 [1]: 8.1 nM | IC50 [2]: 21 nM | IC50 (A549): 9930 nM

COc1ccc(Nc2ncnc3cc(OC(C)C)c4c(c23)OCCO4)cc1[N+](=O)[O-]
IC50 [1]: > 1000 nM | IC50 [2]: > 1000 nM

COCCOc1cc2ncnc(Nc3ccc(OC)c([N+](=O)[O-])c3)c2c2c1OCCO2
IC50 [1]: > 1000 nM | IC50 [2]: > 1000 nM

C#Cc1cccc(Nc2ncnc3cc(OC(C)C)c4c(c23)OCCO4)c1
IC50 (NCI-H358): 4540 nM | CC50 [3]: 22100 nM | IC50 [1]: 31.4 nM | IC50 [2]: 23.7 nM | IC50 (A549): 6080 nM

C#Cc1cccc(Nc2ncnc3cc(OC(C)COC)c4c(c23)OCCO4)c1 (stereo not given)
IC50 [1]: 76.1 nM | IC50 [2]: 474 nM

FC(F)(F)c1cccc(Nc2ncnc3cc(OCCCN4CCOCC4)c4c(c23)OCCO4)c1
IC50 [2]: 97.2 nM

CCOC(C)Oc1cc2ncnc(Nc3ccc(C)c(C#N)c3)c2c2c1OCCO2 (stereo not given)
IC50 [1]: > 1000 nM | IC50 [2]: > 1000 nM

CCOC(C)Oc1cc2ncnc(Nc3ccc(F)c(C#N)c3)c2c2c1OCCO2 (stereo not given)
IC50 [1]: > 1000 nM | IC50 [2]: 352 nM

Clc1cccc(Nc2ncnc3cc(OCCCN4CCOCC4)c4c(c23)OCCO4)c1
IC50 [2]: 21.9 nM

CCOc1cc2ncnc(Nc3cccc(OC)c3)c2c2c1OCCO2
CC50 [3]: 25300 nM | IC50 [1]: 70 nM | IC50 [2]: 4.4 nM

Fc1ccc(Nc2ncnc3cc(OC4CCOC4)c4c(c23)OCCO4)cc1Cl (stereo not given)
IC50 [1]: 151 nM | IC50 [2]: 20.5 nM

CCOc1cc2ncnc(Nc3ccc(C)cc3)c2c2c1OCCO2
CC50 [3]: 27400 nM | IC50 [1]: 124 nM | IC50 [2]: 3.6 nM

CC(C)Oc1cc2ncnc(Nc3ccc(F)c(C#N)c3)c2c2c1OCCO2
IC50 [1]: > 1000 nM | IC50 [2]: 314 nM

COCCOc1cc2ncnc(Nc3ccc(F)cc3)c2c2c1OCCO2
CC50 [3]: 25900 nM | IC50 [1]: > 1000 nM | IC50 [2]: 200 nM

COCCOc1cc2ncnc(Nc3cccc(OC)c3)c2c2c1OCCO2
CC50 [3]: 20800 nM | IC50 [1]: 109 nM | IC50 [2]: 160 nM

COCCOc1cc2ncnc(Nc3ccc(F)c(Cl)c3)c2c2c1OCCO2
IC50 (NCI-H358): 5930 nM | IC50 [1]: 10.5 nM | IC50 [2]: 13.1 nM | IC50 (A549): 13900 nM

Brc1cccc(Nc2ncnc3cc(OCCCN4CCOCC4)c4c(c23)OCCO4)c1
IC50 [2]: 18.5 nM

C#Cc1cccc(Nc2ncnc3cc(OC4CCOCC4)c4c(c23)OCCO4)c1
IC50 [1]: > 1000 nM | IC50 [2]: 57.8 nM

C#Cc1cccc(Nc2ncnc3cc(OC4CCOC4)c4c(c23)OCCO4)c1 (stereo not given)
IC50 [1]: 324 nM | IC50 [2]: 16.7 nM

CCOC(C)Oc1cc2ncnc(Nc3ccc(F)c([N+](=O)[O-])c3)c2c2c1OCCO2 (stereo not given)
IC50 [1]: 271 nM | IC50 [2]: 232 nM

COCCOc1cc2ncnc(Nc3ccc(Cl)c([N+](=O)[O-])c3)c2c2c1OCCO2
IC50 [1]: > 1000 nM | IC50 [2]: 36.2 nM

Fc1ccc(Nc2ncnc3cc(OCC4CCCO4)c4c(c23)OCCO4)cc1Cl (stereo not given)
IC50 [1]: > 1000 nM | IC50 [2]: 24.1 nM

Fc1ccc(Nc2ncnc3cc(OC4CCOCC4)c4c(c23)OCCO4)cc1Cl
IC50 [1]: > 1000 nM | IC50 [2]: 58.8 nM

CCOc1cc2ncnc(Nc3ccc(F)c(Cl)c3)c2c2c1OCCO2
IC50 (NCI-H358): 22700 nM | CC50 [3]: 37000 nM | IC50 [1]: 6.9 nM | IC50 [2]: 2 nM | IC50 (A549): 16100 nM

COc1cc2ncnc(Nc3ccc(F)c(Cl)c3)c2c2c1OCCO2
IC50 [1]: 1000 nM | IC50 [2]: 22.5 nM

Cc1ccc(Nc2ncnc3cc(OC(C)C)c4c(c23)OCCO4)cc1C#N
IC50 [1]: > 1000 nM | IC50 [2]: 416 nM

C#Cc1cccc(Nc2ncnc3cc(OCCOC)c(OCCOC)cc23)c1 [ERLOTINIB]
IC50 (NCI-H358): 3910 nM | CC50 [3]: 28200 nM | IC50 (A549): 7350 nM
